Results taken from patent US8906910B2, “Imidazopyridine derivatives as PI3 kinase” (GlaxoSmithKline LLC, priority 2011, dated 2014).

Columns and labels:
PI3Kβ = target: T1, PI3Kβ (Homo sapiens, UniProt P42338); assay: HTRF in vitro profiling assay for PI3K inhibition (beta isoform); format: biochemical; conditions: 200 pM enzyme, 100 uM ATP, 10 uM PIP2, 150 mM NaCl, corrected pIC50, single run or average of two or more runs; for IC50: read-out: PI3K b pIC50 (converted)
T1 construct: made in house
Text: The PI3-Kinase profiling assays were developed to measure the compound-dependent inhibition of the alpha, beta, delta, and gamma isoforms of PI3Kin an in vitro catalytic assay. This assay was developed and optimized from a kit produced by Upstate (Millipore catalog #33-017). Briefly, this procedure utilizes a pre-formed HTRF (Homogeneous Time-Resolved Fluorescence energy transfer) complex between four binding partners: 1) biotinylated PIP3, 2) GST tagged pleckstrin homology (PH) domain, 3) Europium labeled anti-GST monoclonal antibody, and 4) Streptavidin-Allophycocyanin (APC). The native PIP3 produced by PI 3-Kinase activity displaces biotin-PIP3 from the PH domain, resulting in the dissociation of the HTRF complex and a decrease in the fluorescence signal. The format of this assay is the same for all 4 isoforms of PI3K; the differences lie in the concentration of enzyme used to achieve the most robust signal. The alpha and delta assays are run at 400 pM enzyme; the beta assay is at 200 pM enzyme and the gamma assay is run at 1 nM enzyme. In addition, the alpha, beta and delta assays are run with 150 mM NaCl while the gamma assay is run in the absence of NaCl. The ATP concentration is 100 uM in the alpha, beta, and delta assays and 15 uM ATP in the gamma assay. All reactions are run at 10 uM PIP2
Compounds were serially diluted (3-fold in 100% DMSO) across a 384-well polypropylene mother plate from column 1 to column 12 and column 13 to column 24, to yield 11 concentrations for each test compound. Columns 6 and 18 contain only DMSO. Once titrations were made, 0.054 was transferred to a 384-well low-volume assay plate (Greiner 784076). This assay plate contained three pharmacological controls (known PI3K inhibitors) and 3 assay controls: (1) Enzyme without inhibitor; (2) Buffer minus enzyme, and (3) Buffer minus enzyme plus native PIP3. DMSO was stamped into all wells of columns 6 and 18. PIP3 was added at 40 μM in 1× Reaction buffer (1 μL of 200 μM PIP3) to alternating rows of column 18 (wells 18 B, D, F, H, J, L, N, P). The no-enzyme control reactions were run in wells 18 A, C, E, G, I, K, M, O (0.14 of 100% DMSO).
The PI3-Kinase profiling assay was optimized using the HTRF kit provided by Upstate (Millipore). The assay kit contained seven reagents: 1) 4× Reaction Buffer; 2) native PIP2 (substrate); 3) Stop A (EDTA); 4) Stop B (Biotin-PIP3); 5) Detection Mix A (Streptavidin-APC); 6) Detection Mix B (Eu-labeled Anti-GST plus GST-tagged PH-domain); 7) Detection Mix C (KF). In addition, the following items were obtained or purchased: PI3Kinase (prepared by GSK BR&AD), dithiothreitol (Sigma, D-5545), Adenosine-5′-triphosphate (ATP, Teknova cat. #A0220), native PIP3 (1,2-dioctanoyl-sn-glycero-3-[phosphoinositil-3,4,5-triphosphate]tetraammonium salt (Avanti polar lipids, 850186P), DMSO (Sigma, 472301).
PI3Kinase Reaction Buffer was prepared by diluting the stock 1:4 with de-ionized water. Freshly prepared DTT was added at a final concentration of 5 mM on the day of use. Enzyme addition and compound pre-incubation were initiated by the addition of 2.5 μL of PI3K (at twice its final concentration) in 1× reaction buffer to all wells using a Multidrop Combi. Plates were incubated at room temperature for 15 minutes. Reactions were initiated by addition of 2.5 μL of 2× substrate solution (PIP2 and ATP in 1× reaction buffer) using a Multidrop Combi. Plates were incubated at room temperature for one hour. Reactions were quenched by the addition of 2.5 μL of stop solution (Stop A and Stop B pre-mixed at a ratio of 5:1, respectively) to all wells using the Multidrop Combi. […]

[1] = test system: phosphorylation of AKT (Ser473) in MDA-MB-468 tumor cells; assay: Inhibition of phosphorylation of AKT in PTEN deficient tumor cell line MDA-MB-468 (MSD Ser473-AKT); format: cell-based; conditions: Homo sapiens, 0.5 h; MDA-MB-468 breast cancer cells, 30 minutes compound treatment, Ser473-pAKT normalized to total AKT
Description: Compounds were evaluated for their ability to inhibit downstream phosphorylation of AKT in MDA-MB-468 tumor cells. Breast cancer cells were plated, incubated for approximately 16-20 hours and then treated with compound for 30 minutes. Final DMSO concentration on all cells was 0.15%. The cells were washed with Tris buffer and lysed in MesoScale Discovery (MSD) lysis buffer containing protease and phosphatase inhibitors (included in MSD kit). MSD Ser473-AKT duplex plates (Cat #MS6000) were used according to the manufacturer's instructions and plates were read on a SECTOR™ Imager 6000 using MSD Workbench software. For analysis of the Ser473-pAKT concentration response curves, the data was normalized using the corresponding total AKT value (sum of pAKT and AKT signal) and plotted as the percent of the DMSO-treated control values. The data was fit in Graphpad Prism version 4 for Windows (Graphpad Software, San Diego, Calif.).

MDA-MB-468 cells = assay: Cell growth inhibition in PTEN-deficient cell line MDA-MB-468 (anchorage independent, Alamar Blue); format: cell-based; conditions: Homo sapiens, 144 h, MDA-MB-468, anchorage independent conditions, 6 days incubation, read-out: Prolif EC50 (nM) MDA-MB-468
Description: PTEN deficient tumor cell lines (MDA-MB-468) were cultured generally according to instructions supplied by cell culture supplier American Type Culture Collection, Manassas, Va., with 10% fetal bovine serum at 5% CO2 and 37° C. Cells were seeded into either a T-75 or a T-175 flask 3-4 days prior to 96-well assay plating such that the flasks were approximately 70-80% confluent of the time of harvest. Cells were harvested using 0.25% trypsin-EDTA (Invitrogen #25200056). Trypan Blue exclusion staining was used to determine cell number.
Viable cells were plated in clear, flat bottom 96-well plates (BD #353075) under anchorage independent conditions at 2,000-10,000 cells per well depending on the cell line. To generate anchorage independent growth conditions, a 5% agar stock solution in water was made and autoclaved to melt and sterilize. From the 5% agar solution, a 0.6% agar/media+10% fetal bovine serum (FBS) solution was made to generate a bottom agar layer in the plates to prevent cell attachment. Seventy five microliters per well of the 0.6% agar-media solution was added to the plates. After solidification, a cell solution of 266,870 to 1, 334,022 cells (depending on the cell line) in 10 ml of 0.3% agar/media+10% FBS was made and 75 μl of the cell/media/agar suspension was added to the plates. After the cell layer solidified, 50 μl of media+10% FBS was added to the top of the cells. A 0.3% Brij 35 (Sigma B4184) solution in media+10% FBS was added to column 12 as a background subtraction control. The cells were incubated overnight at 5% CO2 and 37° C. The next day one plate of cells was processed at the time of compound addition to quantify the starting number of cells (T=0 or T0).
To generate the compound titration plates, 15 μl of a 2 mM or 20 μl of a 20 mM solution of the compound of example 31 was diluted in clear bottom polypropylene 96-well plate (BD #351190) using a 10 point, 3-fold titration or a 20 point 2-fold titration, respectively. Three hundred microliters of media was added to the compound dilutions. Ten microliters per well of the serial dilutions was added to the cells and the plates incubated for 6 days at 5% CO2 and 37° C. The final concentration of DMSO in all wells was 0.15% and the highest final concentration of the compound of example 31 was 3.7 μM or 30.7 μM.
Following the 6-day incubation, 20 μl of Alamar Blue (Invitrogen #DAL1100) was added to the cells, incubated at 5% CO2 and 37° C. for 6 hours and the plates read on a Spectramax (Gemini EM) at 530 nm (excitation) and 590 nm (emission) with the auto cut-off disabled. For analysis of cell growth inhibition dose response curves, the data was plotted as the percent of the DMSO-treated control samples (DMSO samples set to 100%). The cellular response was determined for compounds and control compounds by fitting the concentration response with a 4 parameter curve fit using XLfit software and determining the concentration that inhibits 50% of the Ymax-Ymin window (EC50). The EC50 is the midpoint of active compound effect window (between Ymax plateau and Ymin plateau of compound) and represents the concentration of the compound of example 31 where 50% of its maximal effect is observed. Values from wells containing 0.3% Brij 35 (under anchorage independent conditions) were subtracted from all samples for background correction. The compounds listed in Table 3 were tested generally according to the assays described herein. […]

T1 sequence (P42338 whole entry, canonical isoform): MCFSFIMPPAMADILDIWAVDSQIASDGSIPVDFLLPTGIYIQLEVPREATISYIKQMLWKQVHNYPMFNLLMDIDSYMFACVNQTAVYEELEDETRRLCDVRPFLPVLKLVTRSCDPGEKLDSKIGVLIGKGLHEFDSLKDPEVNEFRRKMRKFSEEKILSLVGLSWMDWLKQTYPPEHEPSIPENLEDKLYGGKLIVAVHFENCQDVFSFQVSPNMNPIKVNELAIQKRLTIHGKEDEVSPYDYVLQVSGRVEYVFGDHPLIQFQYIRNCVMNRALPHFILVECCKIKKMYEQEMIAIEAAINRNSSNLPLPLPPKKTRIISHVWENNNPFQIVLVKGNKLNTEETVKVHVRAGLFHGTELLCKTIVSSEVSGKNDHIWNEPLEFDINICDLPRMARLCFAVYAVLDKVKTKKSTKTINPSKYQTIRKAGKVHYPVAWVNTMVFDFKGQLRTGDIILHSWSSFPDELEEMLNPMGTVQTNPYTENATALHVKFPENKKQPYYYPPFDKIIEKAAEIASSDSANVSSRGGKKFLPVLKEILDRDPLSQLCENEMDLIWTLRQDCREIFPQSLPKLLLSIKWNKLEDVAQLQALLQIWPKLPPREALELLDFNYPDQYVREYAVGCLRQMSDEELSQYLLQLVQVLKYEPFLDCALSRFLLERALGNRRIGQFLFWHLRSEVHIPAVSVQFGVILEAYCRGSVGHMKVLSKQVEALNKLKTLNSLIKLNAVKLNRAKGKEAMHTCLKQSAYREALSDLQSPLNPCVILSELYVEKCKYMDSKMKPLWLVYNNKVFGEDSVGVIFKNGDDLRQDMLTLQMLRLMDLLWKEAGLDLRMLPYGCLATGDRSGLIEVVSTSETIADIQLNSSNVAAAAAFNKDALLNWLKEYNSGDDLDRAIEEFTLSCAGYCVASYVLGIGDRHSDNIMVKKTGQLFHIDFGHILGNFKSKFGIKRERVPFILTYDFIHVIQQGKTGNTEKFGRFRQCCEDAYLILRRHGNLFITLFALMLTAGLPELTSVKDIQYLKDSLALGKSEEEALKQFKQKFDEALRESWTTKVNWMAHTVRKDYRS
T1 sequence (P27986 whole entry partner, canonical isoform): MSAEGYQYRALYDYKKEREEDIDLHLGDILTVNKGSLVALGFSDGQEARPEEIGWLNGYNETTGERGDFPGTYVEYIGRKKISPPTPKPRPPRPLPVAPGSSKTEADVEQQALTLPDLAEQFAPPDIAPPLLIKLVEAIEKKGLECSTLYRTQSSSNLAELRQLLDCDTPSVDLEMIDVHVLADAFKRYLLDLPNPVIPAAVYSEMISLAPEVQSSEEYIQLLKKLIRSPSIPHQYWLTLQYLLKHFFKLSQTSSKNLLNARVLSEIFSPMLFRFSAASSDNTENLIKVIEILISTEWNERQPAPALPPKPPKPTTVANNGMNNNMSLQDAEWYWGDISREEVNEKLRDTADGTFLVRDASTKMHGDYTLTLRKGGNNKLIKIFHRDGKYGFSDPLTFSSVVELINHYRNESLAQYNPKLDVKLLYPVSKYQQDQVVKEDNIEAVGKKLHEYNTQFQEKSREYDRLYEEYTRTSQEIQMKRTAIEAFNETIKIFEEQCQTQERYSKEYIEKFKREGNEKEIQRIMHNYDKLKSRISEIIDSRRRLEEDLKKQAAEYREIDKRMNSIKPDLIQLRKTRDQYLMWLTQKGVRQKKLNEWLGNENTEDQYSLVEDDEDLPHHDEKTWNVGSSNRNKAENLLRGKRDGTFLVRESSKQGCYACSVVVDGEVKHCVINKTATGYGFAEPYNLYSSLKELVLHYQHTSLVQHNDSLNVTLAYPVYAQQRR

Row | SMILES | IC50 (PI3Kβ) | EC50 (MDA-MB-468 cells) | PI3K b pIC50 (PI3Kβ) | IC50 [1]
1 | Cc1nc2c(C(=O)O)cc(N3CCOCC3)nc2n1Cc1cccc(Cl)c1Cl [Example 4, 3-(2,3-dichlorobenzyl)-2-methyl-5-morpholino-3H-imidazo[4,5-b]pyridine-7-carboxylic acid] |  | 153 nM | 8.3 | 41.4 nM
2 | Cc1c(Cn2c(C)nc3c(C(=O)O)cc(N4CCOCC4)nc32)cccc1C(F)(F)F [Example 3, 2-methyl-3-(2-methyl-3-(trifluoromethyl)benzyl)-5-morpholino-3H-imidazo[4,5-b]pyridine-7-carboxylic acid] |  | 41 nM | 8.3 | 436 nM
3 | Cc1nc2ccc(N3CCOCC3)nc2n1Cc1cccc2ccccc12 [Example 7, 4-(2-methyl-3-(naphthalen-1-ylmethyl)-3H-imidazo[4,5-b]pyridin-5-yl)morpholine] | 6.31 nM |  |  | 126 nM
4 | Cc1c(Cn2cnc3c(O)cc(N4CCOCC4)nc32)cccc1C(F)(F)F [Example 1, 3-(2-methyl-3-(trifluoromethyl)benzyl)-5-morpholino-3H-imidazo[4,5-b]pyridin-7-ol] | 1.58 nM |  |  | 477 nM

Now from value to compound, other results behind:

Row | IC50 (PI3Kβ) | EC50 (MDA-MB-468 cells) | PI3K b pIC50 (PI3Kβ) | SMILES | IC50 [1]
5 | 39.8 nM | 1500 nM |  | Cc1nc2ccc(N3CCOCC3)nc2n1Cc1cccc(Cl)c1Cl [Example 8, 4-(3-(2,3-dichlorobenzyl)-2-methyl-3H-imidazo[4,5-b]pyridin-5-yl)morpholine] | 406 nM
6 | 1.58 nM | 66.5 nM |  | Cc1nc2c(C(=O)O)cc(N3CCOCC3)nc2n1Cc1cccc2ccccc12 [Example 6, 2-methyl-5-morpholino-3-(naphthalen-1-ylmethyl)-3H-imidazo[4,5-b]pyridine-7-carboxylic acid] | 75.3 nM
7 | 3.16 nM |  |  | Oc1cc(N2CCOCC2)nc2c1ncn2Cc1cccc2ccccc12 [Example 2, 5-morpholino-3-(naphthalen-1-ylmethyl)-3H-imidazo[4,5-b]pyridin-7-ol] | 578 nM
8 |  | 18.1 nM | 8.8 | Cc1c(Cl)cccc1Cn1c(C)nc2c(C(=O)O)cc(N3CCOCC3)nc21 [Example 5, 3-(3-chloro-2-methylbenzyl)-2-methyl-5-morpholino-3H-imidazo[4,5-b]pyridine-7-carboxylic acid] | 15.9 nM
